# Reference: US12180158B1, “Crystalline fumarate salts of n-ethyl-2-(5-fluoro-1H-indol-3-yl)-n-methylethan-1-amine” (Gilgamesh Pharmaceuticals, Inc., priority 2023, dated 2024)
# Key:
# [1] = Dynamic Vapor Sorption (DVS) isotherm; format: physicochemical; conditions: 25° C., FIG. 19
# Description: Dynamic Vapor Sorption (DVS) was performed using a Q5000SA. The sample (5-15 mg) was loaded into a metallic quartz sample pan, suspended from a microbalance, and exposed to a humidified stream of nitrogen gas. Weight changes were relative to a matching empty reference pan opposite the sample, suspended from the microbalance. The sample was held for a minimum of 10 min at each level and only progressed to the next humidity level if there was <0.002% change in weight between measurements (interval: 5 s) or 45 min had elapsed (for 5-65% RH) or 2 h had elapsed (for 80 and 95% RH). The following programs were used: • 1—Equilibration at 50% RH • 2—50% to 5%. (50%, 35%, 20%, and 5%) • 3—5% to 95% (5%, 20%, 35%, 50%, 65%, 80%, and 95%) • 4—95% to 5% (95%, 80%, 65%, 50%, 35%, 20%, and 5%) • 5—5% to 50% (5%, 20%, 35%, and 50%) • 1—Equilibration at 50% RH • 2—50% to 2%. (50%, 40%, 30%, 20%, 10%, and 2%) • 3—2% to 75% (2%, 10%, 20%, 30%, 40%, 50%, 60%, 70% and 75%) • 4—75% to 2% (75%, 70%, 60%, 50%, 40%, 30%, 20%, 10% and 2%) • 5—2% to 50% (2%, 10%, 20%, 30%, 40% and 50%) • 1—Equilibration at 50% RH • 2—50% to 2%. (50%, 40%, 30%, 20%, 10%, and 2%) • 3—2% to 65% (2%, 10%, 20%, 30%, 40%, 50%, 60% and 65%) • 4—65% to 2% (65%, 60%, 50%, 40%, 30%, 20%, 10% and 2%) • 5—2% to 50% (2%, 10%, 20%, 30%, 40% and 50%). […]
# [2] = Exposure of dry cake to humidity, solid form checked by XRPD; format: physicochemical; conditions: for XRPD pattern, dry cake exposed to humidity: monofumarate solids exposed to humidity (90% RH/30° C.), monofumarate
# Description: The two different polymorphic forms of N-ethyl-2-(5-fluoro-1H-indol-3-yl)-N-methylethan-1-amine monofumarate were discovered by reactive crystallization from various solvents. These crystallization experiments were performed by subjecting the in-situ created salt, made by evaporating an ethanol solution of free base and fumaric acid, to vigorous agitation in 10 volumes of the selected solvent. The agitated mixtures were heated to 45-50° C. and cooled to room temperature as necessary to induce crystallization. Form 1 was the predominant form from acetone, and the mixed ethanol/MTBE solvent system, whereas, Form 2 was produced from IPA solvent (see Table 7 below).
# The polymorphic Form 1 of N-ethyl-2-(5-fluoro-1H-indol-3-yl)-N-methylethan-1-amine hemifumarate was discovered by reactive crystallization from various solvents. These crystallization experiments were performed by subjecting the in-situ created salt, made by evaporating an ethanol solution of free base and 0.55 equivalents of fumaric acid, to vigorous agitation in 10 volumes of the selected solvent. The agitated mixtures were heated to 45-50° C. and cooled to room temperature as necessary to induce crystallization. Only one form was observed from the brief crystallization screening study, as depicted in Table 10 below.
Molecule,"XRPD pattern, dry cake exposed to humidity [2]",other results
"CCN(C)CCc1c[nH]c2ccc(F)cc12.Cl [hydrochloride Form 1, N-ethyl-2-(5-fluoro-1H-indol-3-yl)-N-methylethan-1-amine hydrochloride]",–,DVS isotherm behaviour (moisture sorption equilibrium) [1]: did not reach equilibrium at 75% RH
"CCN(C)CCc1c[nH]c2ccc(F)cc12.O=C(O)/C=C/C(=O)O [monofumarate Form 1, N-ethyl-2-(5-fluoro-1H-indol-3-yl)-N-methylethan-1-amine monofumarate]",Form 1,–
"CCN(C)CCc1c[nH]c2ccc(F)cc12.O=C(O)/C=C/C(=O)O [monofumarate Form 2, N-ethyl-2-(5-fluoro-1H-indol-3-yl)-N-methylethan-1-amine monofumarate]",slowly converted to Form 1,–
N-ethyl-2-(5-fluoro-1H-indol-3-yl)-N-methylethan-1-amine hemifumarate [hemifumarate Form 1],–,"XRPD pattern, Humid ([2]; hemi-fumarate dry solid from EtOH:MTBE (1:1 vol.), exposed to humidity): deliquescent"
